According to patent US7348427B2, “Antipathogenic benzamide compounds” (Genesoft Pharmaceuticals, Inc., priority 2001, dated 2008):
≈ marks a conversion by molar mass, not a printed value.

How the values were obtained:
[1] = tested on: Staphylococcus aureus (ATCC 27660, a methicillin resistant strain (MRSA)); assay: MIC, NCCLS broth microdilution assay; assay type: cell-based; conditions: F = S. aureus ATCC 27660
Outline: (§1)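 Activity is measured as MIC in microtiter broth microdilution under NCCLS M7-A4, M11-A4 and M27-T guidance, with the yeast tested by the method in Murray's Manual of Clinical Microbiology.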

[2] = tested on: Bacillus cereus (ATCC 11778); assay: MIC, NCCLS broth microdilution assay; assay type: cell-based; conditions: A = B. cereus ATCC 11778
Outline: as §1

[3] = tested on: Staphylococcus aureus (ATCC 13709, a methicillin sensitive strain (MSSA)); assay: MIC, NCCLS broth microdilution assay; assay type: cell-based; conditions: E = S. aureus ATCC 13709
Outline: as §1

[4] = tested on: Candida albicans (ATCC 38247); assay: Antifungal MIC assay; assay type: cell-based; conditions: B = C. albicans ATCC 38247
Outline: as §1

S. pneumoniae ATCC 49619 = assay: MIC, NCCLS broth microdilution assay; assay type: cell-based, Streptococcus pneumoniae; conditions: H = S. pneumoniae ATCC 49619
Outline: (§2)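 MICs were determined by NCCLS broth microdilution following documents M7-A4 and M11-A4 (1997).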

E. faecalis ATCC 29212 = assay: MIC, NCCLS broth microdilution assay; assay type: cell-based, Enterococcus faecalis; conditions: C = E. faecalis ATCC 29212
Outline: as §2

[5] = Staphylococcus aureus, read-out: Minimum Inhibitory Concentration (MIC)

MIC [1, 5] | MIC ([2]; Bacillus cereus, ATCC11778, read-out: Minimum Inhibitory Concentration (MIC)) | MIC [3, 5] | MIC ([4]; Candida albicans, ATCC38247, read-out: Minimum Inhibitory Concentration (MIC)) | MIC (S. pneumoniae ATCC 49619; Streptococcus pneumoniae, ATCC49619, read-out: Minimum Inhibitory Concentration (MIC)) | MIC (E. faecalis ATCC 29212; Enterococcus faecalis, ATCC29212, read-out: Minimum Inhibitory Concentration (MIC)) | SMILES | Minimum Inhibitory Concentration (MIC) [1] | Minimum Inhibitory Concentration (MIC) [2] | Minimum Inhibitory Concentration (MIC) [3] | Minimum Inhibitory Concentration (MIC) [4] | Minimum Inhibitory Concentration (MIC) (S. pneumoniae ATCC 49619) | Minimum Inhibitory Concentration (MIC) (E. faecalis ATCC 29212)
– | – | – | – | – | – | Cn1cc(NC(=O)c2cc(NC(=O)c3cc(NC(=O)c4ccc(F)cc4NCCCNC4CCCCC4)cn3C)cn2C)cc1C(N)=O [Compound B-51] | + (+ = 12 ≦ MIC ≦ 32) | ++ (++ = 4 < MIC < 12) | ++ (++ = 4 < MIC < 12) | >32 µg/mL | + (+ = 12 ≦ MIC ≦ 32) | >32 µg/mL
– | – | – | – | – | – | Cn1cc(NC(=O)c2cc(NC(=O)c3ccc(Cl)c(Cl)c3)cn2C)cc1C(=O)NCCN1CCOCC1 [Compound B-54] | ++ (++ = 4 < MIC < 12) | ++ (++ = 4 < MIC < 12) | +++ (+++ = MIC ≦ 4) | >32 µg/mL | +++ (+++ = MIC ≦ 4) | ++ (++ = 4 < MIC < 12)
– | – | – | – | – | – | Cn1cc(NC(=O)c2cc(NC(=O)c3cc(NC(=O)c4ccc(Cl)cc4NCCCNC4CCCCC4)cn3C)cn2C)cc1C(N)=O [Compound B-63] | +++ (+++ = MIC ≦ 4) | + (+ = 12 ≦ MIC ≦ 32) | +++ (+++ = MIC ≦ 4) | >32 µg/mL | +++ (+++ = MIC ≦ 4) | >32 µg/mL
– | – | – | – | – | – | Cn1cc(NC(=O)c2cc(NC(=O)c3cc(NC(=O)c4ccc(Cl)cc4NCCN4CCCCC4)cn3C)cn2C)cc1C(N)=O [Compound B-65] | ++ (++ = 4 < MIC < 12) | ++ (++ = 4 < MIC < 12) | + (+ = 12 ≦ MIC ≦ 32) | >32 µg/mL | ++ (++ = 4 < MIC < 12) | + (+ = 12 ≦ MIC ≦ 32)
– | – | – | – | – | – | Cn1cc(NC(=O)c2cc(NC(=O)c3ccc(C#N)cc3)cn2C)cc1C(=O)NCCN1CCOCC1 [Compound B-69] | >32 µg/mL | + (+ = 12 ≦ MIC ≦ 32) | + (+ = 12 ≦ MIC ≦ 32) | >32 µg/mL | +++ (+++ = MIC ≦ 4) | + (+ = 12 ≦ MIC ≦ 32)
– | – | – | – | – | – | Cn1cc(NC(=O)c2cc(NC(=O)c3cc(NC(=O)c4ccc(F)cc4F)cn3C)cn2C)cc1C(=O)NCCc1ccccn1 [Compound B-82] | +++ (+++ = MIC ≦ 4) | +++ (+++ = MIC ≦ 4) | +++ (+++ = MIC ≦ 4) | >32 µg/mL | +++ (+++ = MIC ≦ 4) | +++ (+++ = MIC ≦ 4)
– | – | – | – | – | – | Cn1cc(NC(=O)c2cc(NC(=O)c3cc(NC(=O)c4ccc(Br)cc4F)cn3C)cn2C)cc1C(=O)NCCN1CCOCC1 [Compound B-83] | +++ (+++ = MIC ≦ 4) | +++ (+++ = MIC ≦ 4) | +++ (+++ = MIC ≦ 4) | >32 µg/mL | +++ (+++ = MIC ≦ 4) | +++ (+++ = MIC ≦ 4)
– | – | – | – | – | – | Cn1cc(NC(=O)c2cc(NC(=O)c3cc(NC(=O)c4ccc(OC(F)F)cc4)cn3C)cn2C)cc1C(=O)NCCN1CCCC1 [Compound B-84] | +++ (+++ = MIC ≦ 4) | +++ (+++ = MIC ≦ 4) | +++ (+++ = MIC ≦ 4) | + (+ = 12 ≦ MIC ≦ 32) | +++ (+++ = MIC ≦ 4) | +++ (+++ = MIC ≦ 4)
– | – | – | – | – | – | Cn1cc(NC(=O)c2cc(NC(=O)c3cc(NC(=O)c4ccc(OC(F)F)cc4)cn3C)cn2C)cc1C(=O)NCCN1CCCCC1 [Compound B-85] | +++ (+++ = MIC ≦ 4) | +++ (+++ = MIC ≦ 4) | +++ (+++ = MIC ≦ 4) | + (+ = 12 ≦ MIC ≦ 32) | +++ (+++ = MIC ≦ 4) | +++ (+++ = MIC ≦ 4)
– | – | – | – | – | – | Cn1cc(NC(=O)c2cc(NC(=O)c3cc(NC(=O)c4ccc(OC(F)F)cc4)cn3C)cn2C)cc1C(=O)NCCN1CCSCC1 [Compound B-86] | +++ (+++ = MIC ≦ 4) | +++ (+++ = MIC ≦ 4) | +++ (+++ = MIC ≦ 4) | >32 µg/mL | +++ (+++ = MIC ≦ 4) | +++ (+++ = MIC ≦ 4)
12 to 32 µg/mL (≈ 19.3 to 51.4 µM) | 12 to 32 µg/mL (≈ 19.3 to 51.4 µM) | 4 to 12 µg/mL (≈ 6.42 to 19.3 µM) | > 32 µg/mL | ≤ 4 µg/mL | 4 to 12 µg/mL (≈ 6.42 to 19.3 µM) | Cn1cc(NC(=O)c2ccc(F)cc2F)cc1C(=O)Nc1cc(C(=O)Nc2c[nH]c(C(=O)NCCN3CCOCC3)c2)n(C)c1 [Compound C-1] | – | – | – | – | – | –
– | – | – | – | – | – | Cn1cc(NC(=O)c2cc(NC(=O)c3cc(NC(=O)c4ccc(F)cc4F)cn3C)c[nH]2)cc1C(=O)NCCN1CCOCC1 [Compound C-2] | ++ (++ = 4 < MIC < 12) | ++ (++ = 4 < MIC < 12) | ++ (++ = 4 < MIC < 12) | >32 µg/mL | +++ (+++ = MIC ≦ 4) | ++ (++ = 4 < MIC < 12)
– | – | – | – | – | – | Cn1cc(NC(=O)c2cc(NC(=O)c3cc(NC(=O)c4ccc(F)cc4F)c[nH]3)c[nH]2)cc1C(=O)NCCN1CCOCC1 [Compound C-3] | + (+ = 12 ≦ MIC ≦ 32) | + (+ = 12 ≦ MIC ≦ 32) | + (+ = 12 ≦ MIC ≦ 32) | >32 µg/mL | +++ (+++ = MIC ≦ 4) | ++ (++ = 4 < MIC < 12)
– | – | – | – | – | – | Cn1cc(NC(=O)c2cc(NC(=O)c3cc(NC(=O)c4ccc(F)cc4F)cn3C)cn2CCCO)cc1C(=O)NCCN1CCOCC1 [Compound C-4] | + (+ = 12 ≦ MIC ≦ 32) | + (+ = 12 ≦ MIC ≦ 32) | + (+ = 12 ≦ MIC ≦ 32) | >32 µg/mL | +++ (+++ = MIC ≦ 4) | + (+ = 12 ≦ MIC ≦ 32)
– | – | – | – | – | – | Cn1cc(NC(=O)c2cc(NC(=O)c3cc(NC(=O)c4ccc(F)cc4F)c[nH]3)cn2CCCO)cc1C(=O)NCCN1CCOCC1 [Compound C-5] | + (+ = 12 ≦ MIC ≦ 32) | + (+ = 12 ≦ MIC ≦ 32) | + (+ = 12 ≦ MIC ≦ 32) | >32 µg/mL | +++ (+++ = MIC ≦ 4) | + (+ = 12 ≦ MIC ≦ 32)
– | – | – | – | – | – | Cn1cc(NC(=O)c2cc(NC(=O)c3cc(NC(=O)c4ccc(F)cc4F)cn3CCCO)cn2C)cc1C(=O)NCCN1CCOCC1 [Compound C-6] | + (+ = 12 ≦ MIC ≦ 32) | + (+ = 12 ≦ MIC ≦ 32) | + (+ = 12 ≦ MIC ≦ 32) | >32 µg/mL | +++ (+++ = MIC ≦ 4) | + (+ = 12 ≦ MIC ≦ 32)
– | – | – | – | – | – | COCn1cc(NC(=O)c2ccc(F)cc2F)cc1C(=O)Nc1cc(C(=O)Nc2cc(C(=O)NCCN3CCOCC3)n(C)c2)n(C)c1 [Compound C-7] | + (+ = 12 ≦ MIC ≦ 32) | + (+ = 12 ≦ MIC ≦ 32) | ++ (++ = 4 < MIC < 12) | >32 µg/mL | +++ (+++ = MIC ≦ 4) | + (+ = 12 ≦ MIC ≦ 32)
– | – | – | – | – | – | Cn1cc(NC(=O)c2cc(NC(=O)c3ccc(Cl)cc3F)c[nH]2)cc1C(=O)Nc1c[nH]c(C(=O)NCCN2CCOCC2)c1 [Compound C-8] | +++ (+++ = MIC ≦ 4) | +++ (+++ = MIC ≦ 4) | +++ (+++ = MIC ≦ 4) | +++ (+++ = MIC ≦ 4) | +++ (+++ = MIC ≦ 4) | +++ (+++ = MIC ≦ 4)
– | – | – | – | – | – | Cn1cc(NC(=O)c2cc(NC(=O)c3cc(NC(=O)c4ccc(Cl)cc4F)cn3C)c[nH]2)cc1C(=O)NCCN1CCOCC1 [Compound C-10] | +++ (+++ = MIC ≦ 4) | +++ (+++ = MIC ≦ 4) | +++ (+++ = MIC ≦ 4) | + (+ = 12 ≦ MIC ≦ 32) | +++ (+++ = MIC ≦ 4) | +++ (+++ = MIC ≦ 4)
